Measurements from patent US20260183262A1, “RNA-BINDING MOTIF PROTEIN 39 (RBM39) DEGRADERS FOR TREATMENT OF CANCERS” (RECURSION PHARMACEUTICALS, INC., priority 2022, published 2026).

Tests used:
[1] = tested on: BRCA1; assay: IHC protein expression on OVCAR3 tumor samples: BRCA1; type: in vivo, human; conditions: OVCAR3 tumor samples from Example 1 CDX study
Experimental: (§1) • Sample Collection: 16 tumor samples were collected across the vehicle, olaparib, E7820 single agent, and paclitaxel arms from the in vivo OVCAR3 CDX study described in Example 1
(§2) • 1) Collect fresh specimens and place in 10% NBF (neutral-buffered formalin; fixative volume/tissue, 10˜20 folds), fix at room temperature for 24 hours. • 2) Trim the fixed tissue at the thickness of 3-5 mm. • 3) Move the tissue into the Embedding box, and snap the box into deionized water for 30 minutes, change water twice every 30 minutes. • 4) After washing, the fixed tissues are transferred to the LEICA ASP300S Vacuum Tissue Processor for dehydration.
(§3) • All stained sections are scanned with NanoZoomer-HT 2.0 Image system for 40× magnification. High resolution picture for whole section is generated and further quantification analyzed by HALO. All the scanned images are analyzed by HALO™ platform. The whole slide image is analyzed and necrosis and stroma area are excluded, only viable tumor area is scored. The intensity of specific staining is scored at four levels, 0 (negative), 1+(weak staining), 2+(medium staining), 3+(strong staining). The percentages of tumor cells at different intensity levels are evaluated with H-score. H-Score=(% at 0)×0+(% at 1)×1+(% at 2)×2+(% at 3)×3 (H-Score range is 0 to 300).

[2] = molecular target: T1, CDK12+Cyclin K (Homo sapiens, UniProt Q9NYV4); assay: NanoBRET target engagement intracellular kinase assay in HEK293; type: cell-based; conditions: HEK293 cells transfected with CDK12-NanoLuc and CCNK; up to 10 μM
T1 construct: host or cells: HEK293 (transient transfection, FuGENE HD)
Experimental: • Cell culture: CDK12 NanoBRET assay kit was obtained from Reaction Biology with experiment performed by Pharmaron. HEK293 cells were cultured using 90% DMEM with 10% FBS. Cells were cultivated in T-75 flasks in a cell culture incubator set at 37° C., 5% CO^2, 95% relative humidity. Once cells reached 80-90% confluence, they were detached and split. Cultivated cells in T-75 flasks were rinsed with 5 mL PB and aspirated off. 1.5 mL trypsin was added and incubated at 37° C. for approximately 5 minutes or until the cells detached and started to float. Trypsin was inactivated by adding excess serum containing medium. • Transient Transfection of HEK293 Cells: Cell culture medium was removed from cell flask by aspiration and trypsinized, allowing cells to dissociate from flask. Trypsin was neutralized using cell culture medium and centrifuged at 200×g for 5 minutes to pellet cells. Medium was aspirated and resuspended in assay medium consisting of 99% Opti-MEM, reduced serum medium with no phenol red and 1% FBS. Density was adjusted to 2×10^5 cells/ml using assay medium. 10 μg/ml solution of DNA in Opti-MEM was prepared consisting of 9 μg/mL of CCNK, 1 ug/mL of Kinase-NanoLuc fusion vector DNA CDK12, and 1 mL of Opti-MEM. This solution was mixed thoroughly. 30 μl of FuGENE HD Transfection Reagent was added into each milliliter of DNA mixture to form lipid: DNA complex. Mixture was inverted 5-10 times and incubated at ambient temperature for 20 minutes to allow complexes to form. In a sterile, conical tub, 1 part of lipid DNA complex (1 mL) was mixed with 20 parts of HEK293 cells (20 mL) in suspension at 2×10^5 cells/mL. Tube was mixed gently by inversion 5 times. […] Lastly, 20 μL of this 3× complete substrate plus inhibitor solution was added to each well of the 384-well plate and incubated for 2-3 minutes at room temperature and read the plate on the Envision. • Calculation: BRET Ratio was calculated as follows: […]

[3] = tested on: CDK7; assay: IHC protein expression on OVCAR3 tumor samples: CDK7; type: in vivo, human; conditions: OVCAR3 tumor samples from Example 1 CDX study
Experimental: as §1, §2, §3

T1 sequence (Q9NYV4 whole entry): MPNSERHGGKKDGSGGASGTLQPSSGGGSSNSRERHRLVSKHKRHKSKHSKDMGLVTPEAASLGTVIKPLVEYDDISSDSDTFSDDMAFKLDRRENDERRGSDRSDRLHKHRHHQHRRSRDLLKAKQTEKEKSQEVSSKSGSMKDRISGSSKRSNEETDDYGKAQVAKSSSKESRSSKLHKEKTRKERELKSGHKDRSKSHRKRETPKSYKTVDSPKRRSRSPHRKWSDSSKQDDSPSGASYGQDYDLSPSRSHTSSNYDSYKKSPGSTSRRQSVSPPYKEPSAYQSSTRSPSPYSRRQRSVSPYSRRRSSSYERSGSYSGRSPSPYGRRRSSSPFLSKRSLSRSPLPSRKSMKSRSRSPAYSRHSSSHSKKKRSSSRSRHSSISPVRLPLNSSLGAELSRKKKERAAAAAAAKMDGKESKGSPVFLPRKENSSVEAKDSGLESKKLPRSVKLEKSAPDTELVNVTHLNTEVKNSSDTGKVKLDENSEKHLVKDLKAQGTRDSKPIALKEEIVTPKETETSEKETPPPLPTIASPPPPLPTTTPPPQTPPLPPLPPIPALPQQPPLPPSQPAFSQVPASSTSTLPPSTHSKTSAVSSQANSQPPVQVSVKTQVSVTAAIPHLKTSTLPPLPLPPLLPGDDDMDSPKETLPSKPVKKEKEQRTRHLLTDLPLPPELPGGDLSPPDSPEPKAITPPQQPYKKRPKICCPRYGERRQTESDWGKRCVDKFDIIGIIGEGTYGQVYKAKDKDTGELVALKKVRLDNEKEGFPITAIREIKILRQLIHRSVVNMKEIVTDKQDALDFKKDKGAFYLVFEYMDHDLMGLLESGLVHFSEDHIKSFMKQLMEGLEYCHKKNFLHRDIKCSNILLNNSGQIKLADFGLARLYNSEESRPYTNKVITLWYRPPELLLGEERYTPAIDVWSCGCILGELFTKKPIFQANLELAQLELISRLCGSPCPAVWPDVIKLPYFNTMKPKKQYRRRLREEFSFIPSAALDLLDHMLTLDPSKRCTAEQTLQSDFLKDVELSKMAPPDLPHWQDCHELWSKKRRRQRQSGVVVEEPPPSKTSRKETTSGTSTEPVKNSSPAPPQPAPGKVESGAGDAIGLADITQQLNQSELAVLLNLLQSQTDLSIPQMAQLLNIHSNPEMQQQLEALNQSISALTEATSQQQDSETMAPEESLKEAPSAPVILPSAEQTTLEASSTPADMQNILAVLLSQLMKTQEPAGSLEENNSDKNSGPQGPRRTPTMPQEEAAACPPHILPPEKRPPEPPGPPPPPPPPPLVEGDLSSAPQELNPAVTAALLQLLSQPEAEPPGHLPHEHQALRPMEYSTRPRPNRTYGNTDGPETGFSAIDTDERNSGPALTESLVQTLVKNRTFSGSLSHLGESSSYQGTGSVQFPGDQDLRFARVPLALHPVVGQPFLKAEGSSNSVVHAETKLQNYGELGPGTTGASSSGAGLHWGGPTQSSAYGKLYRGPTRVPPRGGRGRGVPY
T1 sequence (O75909 whole entry partner): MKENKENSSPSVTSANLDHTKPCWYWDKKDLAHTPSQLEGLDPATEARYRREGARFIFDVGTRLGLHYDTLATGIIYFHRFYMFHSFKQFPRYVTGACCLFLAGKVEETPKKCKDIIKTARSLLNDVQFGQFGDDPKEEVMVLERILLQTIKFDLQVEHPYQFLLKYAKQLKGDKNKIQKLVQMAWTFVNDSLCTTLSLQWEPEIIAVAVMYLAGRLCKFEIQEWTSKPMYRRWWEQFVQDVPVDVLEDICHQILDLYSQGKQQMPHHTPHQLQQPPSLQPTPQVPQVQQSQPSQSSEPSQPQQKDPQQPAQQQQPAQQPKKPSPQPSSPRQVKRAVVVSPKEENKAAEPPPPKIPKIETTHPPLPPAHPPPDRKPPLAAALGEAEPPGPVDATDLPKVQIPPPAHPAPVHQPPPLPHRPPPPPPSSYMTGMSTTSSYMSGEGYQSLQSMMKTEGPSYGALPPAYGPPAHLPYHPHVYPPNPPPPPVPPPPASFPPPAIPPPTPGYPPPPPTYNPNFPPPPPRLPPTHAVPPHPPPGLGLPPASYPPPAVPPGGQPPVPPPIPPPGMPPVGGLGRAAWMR

Compound: Cc1ccc(NS(=O)(=O)c2cccc(C#N)c2)c2[nH]cc(C#N)c12 [Compound E7820]
- BRCA1 protein expression (IHC) [1]: downregulate
- CDK12 kinase activity [2]: does not affect CDK12 kinase activity
- CDK7 protein expression (IHC) [3]: no changes
